From publication PMC3433420 (PLoS ONE, 2012)
Where two headings read alike, the source gives them in different places.

Columns and labels:
SH2 and PTB domains = settings: original PM interactions, ref Jones et al. 2006 / Kaushansky et al. Chem and Biol 2008, cited from earlier work
Description: Supplement pone.0044471.s022.xlsx, sheet "Most recent PM interactions" | column: Kd || Supplement pone.0044471.s022.xlsx, sheet "All original PM interactions" | column: Kd

GRB7 SH2 domain [1] = target: T1, GRB7 SH2 domain (Homo sapiens, UniProt Q14451); experiment: FP saturation binding assay; settings: peptides queried on both FP and PM platforms
T1 sequence (Q14451 431-527 limits assumed): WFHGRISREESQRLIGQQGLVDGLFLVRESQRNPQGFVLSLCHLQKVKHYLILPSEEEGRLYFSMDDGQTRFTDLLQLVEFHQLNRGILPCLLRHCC

GRB7 SH2 domain [2] = target: T1, GRB7 SH2 domain; set-up: 6X His; thioredoxin; made in house; host or cells: E. coli BL21(DE3)pLysS; settings: previous protein microarray data, Figure S5; cited from earlier work

## FDNLpYYWDQDPPEd [ErbB2 pY1221, N-terminally rhodamine-labeled 13-mer phosphopeptide]
SH2 and PTB domains; Protein ABL2
  Kd: 500 nM
SH2 and PTB domains; Protein BLK
  Kd: 1200 nM
SH2 and PTB domains; Protein BLNK
  Kd: 1560 nM
SH2 and PTB domains; Protein BMX
  Kd: 2000 nM
SH2 and PTB domains; Protein FGR
  Kd: 2000 nM
SH2 and PTB domains; Protein GRB10
  Kd: 120 nM
SH2 and PTB domains; Protein GRB14
  Kd: 1400 nM
SH2 and PTB domains; Protein ITK
  Kd: 1520 nM
SH2 and PTB domains; Protein LYN
  Kd: 930 nM
SH2 and PTB domains; Protein PIK3R1-C
  Kd: 2000 nM
SH2 and PTB domains; Protein PIK3R1-NC
  Kd: 1160 nM
SH2 and PTB domains; Protein PIK3R2-N
  Kd: 950 nM
SH2 and PTB domains; Protein PIK3R2-NC
  Kd: 2000 nM
SH2 and PTB domains; Protein PIK3R3-C
  Kd: 1910 nM
SH2 and PTB domains; Protein PIK3R3-N
  Kd: 2000 nM
SH2 and PTB domains; Protein PIK3R3-NC
  Kd: 2000 nM
SH2 and PTB domains; Protein PLCG1-C
  Kd: 2000 nM
SH2 and PTB domains; Protein PLCG1-N
  Kd: 1930 nM
SH2 and PTB domains; Protein PLCG1-NC
  Kd: 1960 nM
SH2 and PTB domains; Protein PLCG2-N
  Kd: 2000 nM
SH2 and PTB domains; Protein PLCG2-NC
  Kd: 2000 nM
SH2 and PTB domains; Protein PTPN11-N
  Kd: 2000 nM
SH2 and PTB domains; Protein RASA1-N
  Kd: 370 nM
SH2 and PTB domains; Protein RASA1-NC
  Kd: 900 nM
SH2 and PTB domains; Protein SH2D3A
  Kd: 1280 nM
SH2 and PTB domains; Protein SH2D3C
  Kd: 160 nM
SH2 and PTB domains; Protein SH3BP2
  Kd: 2000 nM
SH2 and PTB domains; Protein SHB
  Kd: 210 nM
SH2 and PTB domains; Protein SHC1-PTB
  Kd: 170 nM
SH2 and PTB domains; Protein SHC2-PTB
  Kd: 430 nM
SH2 and PTB domains; Protein SHD
  Kd: 2000 nM
SH2 and PTB domains; Protein SHF
  Kd: 340 nM
SH2 and PTB domains; Protein SLA2
  Kd: 1440 nM
SH2 and PTB domains; Protein SLA
  Kd: 1070 nM
SH2 and PTB domains; Protein SOCS1
  Kd: 1230 nM
SH2 and PTB domains; Protein SRC
  Kd: 35 nM
SH2 and PTB domains; Protein SUPT6H
  Kd: 1570 nM
SH2 and PTB domains; Protein SYK-C
  Kd: 2000 nM
SH2 and PTB domains; Protein SYK-N
  Kd: 260 nM
SH2 and PTB domains; Protein SYK-NC
  Kd: 410 nM
SH2 and PTB domains; Protein TEC
  Kd: 770 nM
SH2 and PTB domains; Protein TXK
  Kd: 1230 nM
SH2 and PTB domains; Protein VAV2
  Kd: 1750 nM
SH2 and PTB domains; Protein VAV3
  Kd: 1650 nM
SH2 and PTB domains; Protein YES1
  Kd: 45 nM
SH2 and PTB domains; Protein ZAP70-NC
  Kd: 1440 nM
GRB7 SH2 domain [1]
  interaction with GRB7 on the FP platform: only displayed interactions with GRB7 from the PM platform
GRB7 SH2 domain [2]
  interaction with GRB7 on the PM platform: only displayed interactions with GRB7 from the PM platform
